Data taken from ChEMBL document CHEMBL6078700, “Synthesis of novel deuterated EGFR/ALK dual-target inhibitors and their activity against non-small cell lung cancer” (Eur J Med Chem, 2025).
pIC50: −log10 of the molar value.

Assays:
[1] = test system: NCI-H1975; assay: Induction of apoptosis in human NCI-H1975 cells assessed as late apoptotic cells at 5 nM incubated for 48 hrs by allo-Phycocyanin-Annexin V staining based flow cytometry (reference value: 4.08 %); format: functional
[2] = Antiproliferative activity against human THLE-3 cells incubated for 48 hrs by CCK8 assay; format: toxicity, cell-based; details: thle-3, 48 h
[3] = test system: NCI-H1975; assay: Induction of cell cycle arrest in human NCI-H1975 cells assessed as accumulation at S phase at 5 nM incubated for 24 hrs by PI/RNase staining based flow cytometry (reference value: 17.1 %); format: functional
[4] = test system: NCI-H1975; assay: Induction of cell cycle arrest in human NCI-H1975 cells assessed as accumulation at G2/M phase at 5 nM incubated for 24 hrs by PI/RNase staining based flow cytometry (reference value: 32.71 %); format: functional
[5] = test system: NCI-H1975; assay: Induction of apoptosis in human NCI-H1975 cells assessed as viable cells at 10 nM incubated for 48 hrs by allo-Phycocyanin-Annexin V staining based flow cytometry (reference value: 93.6 %); format: functional; details: read-out: Activity
[6] = test system: NCI-H1975; assay: Induction of apoptosis in human NCI-H1975 cells assessed as early apoptotic cells at 5 nM incubated for 48 hrs by allo-Phycocyanin-Annexin V staining based flow cytometry (reference value: 2.27 %); format: functional
[7] = test system: NCI-H1975; assay: Induction of apoptosis in human NCI-H1975 cells assessed as early apoptotic cells at 1 nM incubated for 48 hrs by allo-Phycocyanin-Annexin V staining based flow cytometry (reference value: 2.27 %); format: functional
[8] = Half life in Sprague-Dawley rat at 10 mg/kg, po; format: ADME, organism-based; details: in vivo
[9] = test system: NCI-H1975; assay: Induction of apoptosis in human NCI-H1975 cells assessed as necrotic cells at 1 nM incubated for 48 hrs by allo-Phycocyanin-Annexin V staining based flow cytometry (reference value: 0.031 %); format: functional
[10] = Half life in Sprague-Dawley rat at 1 mg/kg, iv; format: ADME, organism-based; details: in vivo
[11] = test system: BaF3; assay: Antiproliferative activity against mouse BaF3 cells expressing EML4-ALK fusion incubated for 48 hrs by CCK8 assay; details: baf3
[12] = test system: NCI-H1975; assay: Induction of apoptosis in human NCI-H1975 cells assessed as viable cells at 5 nM incubated for 48 hrs by allo-Phycocyanin-Annexin V staining based flow cytometry (reference value: 93.6 %); format: functional; details: Homo sapiens, NCI-H1975, read-out: Activity
[13] = test system: NCI-H1975; assay: Antitumor activity against human NCI-H1975 cells xenografted in BALB/c-nu mouse at 15 mg/kg, po administered daily orally for 21 days relative to control; format: functional; details: Mus musculus, NCI-H1975, po, 504 h, time 21 day, read-out: TGI
[14] = test system: NCI-H1975; assay: Induction of cell cycle arrest in human NCI-H1975 cells assessed as accumulation at S phase at 1 nM incubated for 24 hrs by PI/RNase staining based flow cytometry (reference value: 17.1 %); format: functional
[15] = test system: NCI-H1975; assay: Induction of cell cycle arrest in human NCI-H1975 cells assessed as accumulation at G2/M phase at 10 nM incubated for 24 hrs by PI/RNase staining based flow cytometry (reference value: 32.71 %); format: functional
[16] = test system: NCI-H1975; assay: Induction of apoptosis in human NCI-H1975 cells assessed as early apoptotic cells at 10 nM incubated for 48 hrs by allo-Phycocyanin-Annexin V staining based flow cytometry (reference value: 2.27 %); format: functional
[17] = test system: NCI-H1975; assay: Induction of cell cycle arrest in human NCI-H1975 cells assessed as accumulation at G0/G1 phase at 1 nM incubated for 24 hrs by PI/RNase staining based flow cytometry (reference value: 50.19 %); format: functional
[18] = Antiproliferative activity against human NCI-H1975 cells expressing EGFR mutation incubated for 48 hrs by CCK8 assay; details: nci-h1975
[19] = test system: NCI-H1975; assay: Induction of apoptosis in human NCI-H1975 cells assessed as necrotic cells at 10 nM incubated for 48 hrs by allo-Phycocyanin-Annexin V staining based flow cytometry (reference value: 0.031 %); format: functional
[20] = Apparent volume of distribution during terminal phase in Sprague-Dawley rat at 1 mg/kg, iv; format: ADME, organism-based; details: in vivo
[21] = test system: NCI-H1975; assay: Induction of cell cycle arrest in human NCI-H1975 cells assessed as accumulation at S phase at 10 nM incubated for 24 hrs by PI/RNase staining based flow cytometry (reference value: 17.1 %); format: functional
[22] = test system: NCI-H1975; assay: Antitumor activity against human NCI-H1975 cells xenografted in BALB/c-nu mouse at 30 mg/kg, po administered daily orally for 21 days relative to control; format: functional; details: Mus musculus, NCI-H1975, po, 504 h, time 21 day, read-out: TGI
[23] = test system: NCI-H1975; assay: Induction of apoptosis in human NCI-H1975 cells assessed as late apoptotic cells at 10 nM incubated for 48 hrs by allo-Phycocyanin-Annexin V staining based flow cytometry (reference value: 4.08 %); format: functional
[24] = Antiproliferative activity against human HLF1 cells incubated for 48 hrs by CCK8 assay; format: toxicity, cell-based; details: hlf1, 48 h
[25] = test system: NCI-H2228; assay: Antiproliferative activity against human NCI-H2228 cells expressing EML4-ALK fusion incubated for 48 hrs by CCK8 assay; details: nci-h2228
[26] = Oral bioavailability in Sprague-Dawley rat at 10 mg/kg; format: ADME, organism-based; details: in vivo
[27] = test system: NCI-H1975; assay: Induction of cell cycle arrest in human NCI-H1975 cells assessed as accumulation at G2/M phase at 1 nM incubated for 24 hrs by PI/RNase staining based flow cytometry (reference value: 32.71 %); format: functional
[28] = Cmax in Sprague-Dawley rat at 10 mg/kg, po; format: ADME, organism-based; details: in vivo
[29] = Tmax in Sprague-Dawley rat at 1 mg/kg, iv; format: ADME, organism-based; details: in vivo
[30] = MRT (0 to t) in Sprague-Dawley rat at 10 mg/kg, po; format: ADME, organism-based; details: in vivo
[31] = test system: NCI-H522; assay: Antiproliferative activity against human NCI-H522 cells expressing wild-type EGFR/ALK incubated for 48 hrs by CCK8 assay; details: nci-h522
[32] = test system: NCI-H1975; assay: Antitumor activity against human NCI-H1975 cells xenografted in BALB/c-nu mouse at 5 mg/kg, po administered daily orally for 21 days relative to control; format: functional; details: Mus musculus, NCI-H1975, po, 504 h, time 21 day, read-out: TGI
[33] = test system: NCI-H1975; assay: Induction of cell cycle arrest in human NCI-H1975 cells assessed as accumulation at G0/G1 phase at 10 nM incubated for 24 hrs by PI/RNase staining based flow cytometry (reference value: 50.19 %); format: functional
[34] = test system: HK-2; assay: Antiproliferative activity against human HK-2 cells incubated for 48 hrs by CCK8 assay; format: toxicity, cell-based; details: hk-2, 48 h
[35] = Tmax in Sprague-Dawley rat at 10 mg/kg, po; format: ADME, organism-based; details: in vivo
[36] = test system: NCI-H1975; assay: Induction of apoptosis in human NCI-H1975 cells assessed as necrotic cells at 5 nM incubated for 48 hrs by allo-Phycocyanin-Annexin V staining based flow cytometry (reference value: 0.031 %); format: functional
[37] = test system: NCI-H1975; assay: Induction of cell cycle arrest in human NCI-H1975 cells assessed as accumulation at G0/G1 phase at 5 nM incubated for 24 hrs by PI/RNase staining based flow cytometry (reference value: 50.19 %); format: functional
[38] = Apparent oral clearance in Sprague-Dawley rat at 1 mg/kg, iv; format: ADME, organism-based; details: in vivo
[39] = test system: NCI-H1975; assay: Induction of apoptosis in human NCI-H1975 cells assessed as viable cells at 1 nM incubated for 48 hrs by allo-Phycocyanin-Annexin V staining based flow cytometry (reference value: 93.6 %); format: functional; details: read-out: Activity
[40] = test system: L02; assay: Antiproliferative activity against human L02 cells incubated for 48 hrs by CCK8 assay; format: toxicity, cell-based; details: l02, 48 h
[41] = test system: NCI-H1975; assay: Induction of apoptosis in human NCI-H1975 cells assessed as late apoptotic cells at 1 nM incubated for 48 hrs by allo-Phycocyanin-Annexin V staining based flow cytometry (reference value: 4.08 %); format: functional

[2H]C([2H])([2H])C([2H])([2H])[S+]([O-])c1ccccc1Nc1nc(Nc2cc(NC(=O)C=C)c(N(C)CCN(C)C)cc2OC)ncc1Cl (single isomer, unassigned; (-))
Activity [1]: 14.3%
Activity [2]: Non-toxic
Activity [3]: 3.78%
Activity [4]: 28.91%
viability at 0.01 µM [5]: 46.8%
Activity [6]: 22.8%
Activity [7]: 16.6%
half-life [8]: 279 min
Activity [9]: 0.071%
half-life [10]: 63.4 min
pIC50 [11]: 8.62
viability at 0.005 µM [12]: 62.8%
inhibition in vivo at 15 mg/kg [13]: 93.2%
Activity [14]: 12.5%
Activity [15]: 28.2%
Activity [16]: 32.5%
Activity [17]: 64.57%
pIC50 [18]: 8.97
Activity [19]: 0.22%
Vz/F [20]: 5.9 L/kg
Activity [21]: 3.84%
inhibition in vivo at 30 mg/kg [22]: 97.2%
Activity [23]: 20.5%
Activity [24]: Non-toxic
pIC50 [25]: 7.67
bioavailability [26]: 44.1%
Activity [27]: 22.93%
Cmax [28]: 169 ng/mL
Tmax [29]: 1.98 min
MRT last [30]: 3.57 h
pIC50 [31]: 5.71
inhibition in vivo at 5 mg/kg [32]: 80.3%
Activity [33]: 68.32%
Activity [34]: Non-toxic
Tmax [35]: 30 min
Activity [36]: 0.16%
Activity [37]: 67.31%
CL/F [38]: 63.7 mL/min/kg
viability at 0.001 µM [39]: 75.4%
Activity [40]: Non-toxic
Activity [41]: 7.98%
